Results published in US12590062B2, “PD-1/PD-L1 inhibitors” (Gilead Sciences, Inc., priority 2017, dated 2026).
Values belong to the compound of their own block, whether it stands above or below them.

Target: T1, PD-1/PD-L1 interaction (Homo sapiens, UniProt Q9NZQ7)
T1 construct: expressed in transfected cells; host or cells: CHO cells (aAPC-PD-L1) co-cultured with Jurkat cells overexpressing PD-1 and an NFAT-luciferase reporter
Assay: PD-1/PD-L1 NFAT reporter co-culture assay
Format: cell-based
Conditions: Jurkat PD-1 NFAT-luciferase cells co-cultured with aAPC-PD-L1 CHO cells, 6 hrs at 37° C.; read-out: EC50 NFAT Luciferase
Method in brief: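 Compounds are scored by restoration of NFAT-luciferase signal in PD-1-expressing Jurkat cells cultured 6 h at 37 °C on CHO cells presenting anti-CD3 and PD-L1; EC50 values derive from four-parameter curve fitting.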

T1 sequence (Q9NZQ7 19-290): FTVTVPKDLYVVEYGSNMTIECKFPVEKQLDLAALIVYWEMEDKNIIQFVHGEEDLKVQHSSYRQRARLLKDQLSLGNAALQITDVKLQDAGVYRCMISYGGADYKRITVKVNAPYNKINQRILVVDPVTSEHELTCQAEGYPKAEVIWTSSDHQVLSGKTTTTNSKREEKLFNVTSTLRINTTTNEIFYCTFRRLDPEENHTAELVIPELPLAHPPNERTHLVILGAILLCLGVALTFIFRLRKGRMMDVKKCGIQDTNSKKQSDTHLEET

SMILES: COc1nc(OCc2cccc(-c3cccc(COc4nc(OC)c(CN[C@@H]5CONC5=O)cc4Cl)c3C)c2C)c(Cl)cc1CN[C@@H]1CONC1=O [Example 173, (4R,4′R)-4,4′-((((((2,2′-dimethyl-[1,1′-biphenyl]-3,3′-diyl)bis(methylene))bis(oxy))bis(5-chloro-2-methoxypyridine-6,3-diyl))bis(methylene))bis(azanediyl))bis(isoxazolidin-3-one)]
- EC50: ≥ 50000 nM

SMILES: COc1nc(OCc2cccc(-c3cccc(COc4nc(OC)c(CNCC(=O)NS(=O)(=O)N(C)C)cc4Cl)c3C)c2C)c(Cl)cc1CNCC(=O)NS(=O)(=O)N(C)C [Example 174, 2,2′-((((((2,2′-dimethyl-[1,1′-biphenyl]-3,3′-diyl)bis(methylene))bis(oxy))bis(5-chloro-2-methoxypyridine-6,3-diyl))bis(methylene))bis(azanediyl))bis(N-(N,N-dimethylsulfamoyl)acetamide)]
- EC50: ≥ 50000 nM

SMILES: COc1nc(OCc2cccc(-c3cccc(COc4nc(OC)c(CN[C@H]5CCC[C@@H](C(=O)O)C5)cc4Cl)c3C)c2C)c(Cl)cc1CN[C@H]1CCC[C@@H](C(=O)O)C1 [Example 184, (1R,1′R,3S,3′S)-3,3′-((((((2,2′-dimethyl-[1,1′-biphenyl]-3,3′-diyl)bis(methylene))bis(oxy))bis(5-chloro-2-methoxypyridine-6,3-diyl))bis(methylene))bis(azanediyl))bis(cyclohexane-1-carboxylic acid)]
- EC50: 1390 nM

SMILES: COc1nc(OCc2cccc(-c3cccc(COc4nc(OC)c(CNC[C@@H](O)CC(=O)O)cc4Br)c3Cl)c2Cl)c(Br)cc1CNC[C@@H](O)CC(=O)O [Example 189, (3S,3′S)-4,4′-((((((2,2′-Dichloro-[1,1′-biphenyl]-3,3′-diyl)bis(methylene))bis(oxy))bis(5-bromo-2-methoxypyridine-6,3-diyl))bis(methylene))bis(azanediyl))bis(3-hydroxybutanoic acid)]
- EC50: 106 nM

SMILES: COc1nc(OCc2cccc(-c3cccc(COc4nc(OC)c(CNC[C@@H](O)CC(=O)O)cc4Br)c3Cl)c2Cl)ccc1CNC[C@@H](O)CC(=O)O [Example 190, (S)-4-(((6-((3′-(((3-Bromo-5-((((S)-3-carboxy-2-hydroxypropyl)amino)methyl)-6-methoxypyridin-2-yl)oxy)methyl)-2,2′-dichloro-[1,1′-biphenyl]-3-yl)methoxy)-2-methoxypyridin-3-yl)methyl)amino)-3-hydroxybutanoic acid]
- EC50: 516 nM

SMILES: N#Cc1cncc(COc2nc(OCc3cccc(-c4cccc(COc5nc(OCc6cncc(C#N)c6)c(CNC[C@@H](O)CC(=O)O)cc5Br)c4Cl)c3Cl)ccc2CNC[C@@H](O)CC(=O)O)c1 [Example 194, (S)-4-(((6-((3′-(((3-Bromo-5-((((S)-3-carboxy-2-hydroxypropyl)amino)methyl)-6-((5-cyanopyridin-3-yl)methoxy)pyridin-2-yl)oxy)methyl)-2,2′-dichloro-[1,1′-biphenyl]-3-yl)methoxy)-2-((5-cyanopyridin-3-yl)methoxy)pyridin-3-yl)methyl)amino)-3-hydroxybutanoic acid]
- EC50: 1260 nM

SMILES: N#Cc1cncc(COc2nc(OCc3cccc(-c4cccc(COc5ccc(CNC[C@@H](O)CC(=O)O)c(OCc6cncc(C#N)c6)n5)c4Cl)c3Cl)ccc2CNC[C@@H](O)CC(=O)O)c1 [Example 195, (3S,3′S)-4,4′-((((((2,2′-Dichloro-[1,1′-biphenyl]-3,3′-diyl)bis(methylene))bis(oxy))bis(2-((5-cyanopyridin-3-yl)methoxy)pyridine-6,3-diyl))bis(methylene))bis(azanediyl))bis(3-hydroxybutanoic acid)]
- EC50: 408 nM

SMILES: C[C@@](CO)(NCc1cc(Br)c(OCc2cccc(-c3cccc(COc4nc(OCc5cncc(C#N)c5)c(CN[C@@](C)(CO)C(=O)O)cc4Br)c3Cl)c2Cl)nc1OCc1cncc(C#N)c1)C(=O)O [Example 197, (2S,2′S)-2,2′-((((((2,2′-Dichloro-[1,1′-biphenyl]-3,3′-diyl)bis(methylene))bis(oxy))bis(5-bromo-2-((5-cyanopyridin-3-yl)methoxy)pyridine-6,3-diyl))bis(methylene))bis(azanediyl))bis(3-hydroxy-2-methylpropanoic acid)]
- EC50: 98 nM

SMILES: Cc1c(COc2cc(OCc3cncc(C#N)c3)c(CNCC(C)(O)CC(=O)O)cc2Cl)cccc1-c1cccc(COc2cc(OCc3cncc(C#N)c3)c(CNCC(C)(O)CC(=O)O)cc2Cl)c1C (stereo not drawn) [Example 218, 4,4′-((((((2,2′-dimethyl-[1,1′-biphenyl]-3,3′-diyl)bis(methylene))bis(oxy))bis(5-chloro-2-((5-cyanopyridin-3-yl)methoxy)-4,1-phenylene))bis(methylene))bis(azanediyl))bis(3-hydroxy-3-methylbutanoic acid)]
- EC50: 680 nM

SMILES: COc1nc(OCc2cccc(-c3cccc(COc4nc(OC)c(CN[C@@H]5CCC[C@@H]5O)cc4Cl)c3C)c2C)c(Cl)cc1CN[C@@H]1CCC[C@@H]1O [Example 227, (1S,1′S,2R,2′R)-2,2′-((((((2,2′-dimethyl-[1,1′-biphenyl]-3,3′-diyl)bis(methylene))bis(oxy))bis(5-chloro-2-methoxypyridine-6,3-diyl))bis(methylene))bis(azanediyl))bis(cyclopentan-1-ol)]
- EC50: 615 nM

SMILES: COc1nc(OCc2cccc(-c3cccc(COc4nc(OC)c(CN[C@H]5CCCC[C@@H]5O)cc4Cl)c3C)c2C)c(Cl)cc1CN[C@H]1CCCC[C@@H]1O [Example 229, (1S,1′S,2S,2′S)-2,2′-((((((2,2′-dimethyl-[1,1′-biphenyl]-3,3′-diyl)bis(methylene))bis(oxy))bis(5-chloro-2-methoxypyridine-6,3-diyl))bis(methylene))bis(azanediyl))bis(cyclohexan-1-ol)]
- EC50: 1220 nM

SMILES: COc1nc(OCc2cccc(-c3cccc(COc4nc(OC)c(C(=O)NC[C@@H](O)CC(=O)O)cc4Cl)c3C)c2C)c(Cl)cc1C(=O)NC[C@@H](O)CC(=O)O [Example 237, (3S,3′S)-4,4′-((6,6′-(((2,2′-dimethyl-[1,1′-biphenyl]-3,3′-diyl)bis(methylene))bis(oxy))bis(5-chloro-2-methoxynicotinoyl))bis(azanediyl))bis(3-hydroxybutanoic acid)]
- EC50: ≥ 50000 nM

SMILES: COc1nc(OCc2cccc(-c3cccc(COc4nc(OC)c(CN5CC[C@H](O)C5)cc4Br)c3C)c2C)c(Br)cc1CN1CC[C@H](O)C1 [Example 244, (3S,3′S)-1,1′-(((((2,2′-dimethyl-[1,1′-biphenyl]-3,3′-diyl)bis(methylene))bis(oxy))bis(5-bromo-2-methoxypyridine-6,3-diyl))bis(methylene))bis(pyrrolidin-3-ol)]
- EC50: 390 nM

SMILES: COc1nc(OCc2cccc(-c3cccc(COc4nc(OC)c(CN5CC[C@@H](O)C5)cc4Br)c3C)c2C)c(Br)cc1CN1CC[C@@H](O)C1 [Example 247, (3R,3′R)-1,1′-(((((2,2′-dimethyl-[1,1′-biphenyl]-3,3′-diyl)bis(methylene))bis(oxy))bis(5-bromo-2-methoxypyridine-6,3-diyl))bis(methylene))bis(pyrrolidin-3-ol)]
- EC50: 776 nM

More lines, now with the values ahead:

- EC50: 808 nM
SMILES: COc1nc(OCc2cccc(-c3cccc(COc4nc(OC)c(CNCC5(O)CC5)cc4Cl)c3C)c2C)c(Cl)cc1CNCC1(O)CC1 [Example 175, 1,1′-(((((((2,2′-dimethyl-[1,1′-biphenyl]-3,3′-diyl)bis(methylene))bis(oxy))bis(5-chloro-2-methoxypyridine-6,3-diyl))bis(methylene))bis(azanediyl))bis(methylene))bis(cyclopropan-1-ol)]

- EC50: 2880 nM
SMILES: COc1nc(OCc2cccc(-c3cccc(COc4nc(OC)c(CNCC(O)C(F)F)cc4Cl)c3C)c2C)c(Cl)cc1CNCC(O)C(F)F (stereo not drawn) [Example 176, 3,3′-((((((2,2′-dimethyl-[1,1′-biphenyl]-3,3′-diyl)bis(methylene))bis(oxy))bis(5-chloro-2-methoxypyridine-6,3-diyl))bis(methylene))bis(azanediyl))bis(1,1-difluoropropan-2-ol)]

- EC50: 775 nM
SMILES: COc1nc(OCc2cccc(-c3cccc(COc4nc(OC)c(CN[C@H]5CCC[C@H]5O)cc4Cl)c3C)c2C)c(Cl)cc1CN[C@H]1CCC[C@H]1O [Example 226, (1R,1′R,2S,2′S)-2,2′-((((((2,2′-dimethyl-[1,1′-biphenyl]-3,3′-diyl)bis(methylene))bis(oxy))bis(5-chloro-2-methoxypyridine-6,3-diyl))bis(methylene))bis(azanediyl))bis(cyclopentan-1-ol)]

- EC50: 844 nM
SMILES: COc1nc(OCc2cccc(-c3cccc(COc4nc(OC)c(CN[C@H]5CCCC[C@H]5O)cc4Cl)c3C)c2C)c(Cl)cc1CN[C@H]1CCCC[C@H]1O [Example 228, (1R,1′R,2S,2′S)-2,2′-((((((2,2′-dimethyl-[1,1′-biphenyl]-3,3′-diyl)bis(methylene))bis(oxy))bis(5-chloro-2-methoxypyridine-6,3-diyl))his(methylene))his(azanediyl))his(cyclohexan-1-ol)]

- EC50: 821 nM
SMILES: COc1nc(OCc2cccc(-c3cccc(COc4nc(OC)c(CN[C@H]5CCC[C@@H]5O)cc4Cl)c3C)c2C)c(Cl)cc1CN[C@H]1CCC[C@@H]1O [Example 230, (1S,1′S,2S,2′S)-2,2′-((((((2,2′-dimethyl-[1,1′-biphenyl]-3,3′-diyl)bis(methylene))bis(oxy))bis(5-chloro-2-methoxypyridine-6,3-diyl))bis(methylene))bis(azanediyl))bis(cyclopentan-1-ol)]

- EC50: 11600 nM
SMILES: COc1nc(OCc2cccc(-c3cccc(COc4nc(OC)c(CN5CCOC[C@H]5C(=O)O)cc4Cl)c3C)c2C)c(Cl)cc1CN1CCOC[C@H]1C(=O)O [Example 233, (3S,3′S)-4,4′-(((((2,2′-dimethyl-[1,1′-biphenyl]-3,3′-diyl)bis(methylene))bis(oxy))bis(5-chloro-2-methoxypyridine-6,3-diyl))bis(methylene))bis(morpholine-3-carboxylicacid)]

- EC50: ≥ 50000 nM
SMILES: COc1nc(OCc2cccc(-c3cccc(COc4nc(OC)c(CN5CCOC(C(=O)O)C5)cc4Cl)c3C)c2C)c(Cl)cc1CN1CCOC(C(=O)O)C1 (stereo not drawn) [Example 235]
